The results in this text go back to US8476255B2, “Histone deacetylase inhibitors” (Orchid Chemicals & Pharmaceuticals Limited, priority 2007, dated 2013).

One assay relates to acetylated Tubulin. Nature of the assay: Tubulin acetylation, sandwich ELISA in HCT116 lysate. Type of assay: cell-based. Conditions: HCT116, 4 hours. On the procedure:
(§1) Acetylated histone (H3), acetylated Tubulin and p21 levels were detected in cell lysate by sandwich ELISA method (Cell Signaling Technology, USA, Cat No: 7232, 7204 & 7167 respectively) by following manufacturer's instructions. Briefly, colon cancer cells (HCT116. 10,000/well) were incubated with test compound (1 and 10 μM) or medium (control) for 4 hours at 37° C. in CO2 incubator. The incubation lasted 18 hours for p21 induction. After incubation, cell lysates were prepared in cell lysis buffer by sonication on ice. The lysates were collected after centrifugation and subjected to ELISA test procedure. 100 μL of each diluted cell lysate in dilution buffer (1:1) was added to appropriate capture antibody coated microwells and incubated overnight at 4° C. After washing, 100 μL of detection antibody was added for 1 hour at 37° C. After second washing, 100 μL of HRP-linked secondary antibody was added for 30 min at 37° C. Finally, after appropriate washing, 100 μL of TMB substrate was added for 10 min at 37° C. followed by 100 μL of stop solution. The absorbance of individual wells was read using a spectrophotometer at 450 nm (A450).
(An ELISA detects its analyte on a solid surface through an enzyme-linked reagent.)

The test system of another assay is p21. The experiment in a line: p21 induction, sandwich ELISA in HCT116 lysate. Type of assay: cell-based. To be noted: HCT116, 18 hours. On the procedure:
as §1

The next assay has as its system HCT116 (colon) xenograft. Type of assay: in vivo. Conditions: oral gavage once every day for 21 days, vs vehicle treated control. How it is done: Experiments were carried out using 6-8 week old female athymic SCID (Severe Combined Immune Deficient) mice. The mice were housed in Individually Ventilated Cages (IVC) at constant temperature (22±3° C.) and humidity (50±20%). They had free access to food and water. Tumors were obtained from ATCC, USA and maintained in vivo by subcutaneous (s.c.) passage of tumor fragments (appx 30 mg) in healthy mice according to standard reported procedures. All the animal protocols were approved by the Institutional Animal Ethics Committee, ORLL, Chennai. Each experimental group included 6-8 mice bearing s.c. tumors. Tumors were implanted into the axillary region by puncturing using a Trocar, and tumor growth was monitored by measurement of tumor diameters with a Vernier caliper. Tumor Volume (TV) was calculated according to the following formula: TV(mm^3)=L×W^2×0.5, […]
Test compound was administered by oral gavage in a volume of 5-10 ml/kg. […] Tumor size was measured twice every week and body weight was recorded daily prior to dosing.
Test compound (T) efficacy was assessed by calculating several parameters based on tumor volume (TV) with respect to untreated control (C). Parameters routinely assessed were T/C % [TVtest/TVcontrol×100] and Tumor Volume Inhibition (TVI=1−T/C %). […]
Toxic effects of drug treatment were assessed by Body Weight Loss %. […]

For the compound `COc1ccc(/C=C(/C(=O)NCc2ccc(C(=O)Nc3ccccc3N)cc2)c2ccc(F)cc2)cc1OC` [Compound 19, N-(2-Aminophenyl)-4-((3-(3,4-dimethoxyphenyl)-2-(4-fluorophenyl)acrylamido)methyl)benzamide], the “Tubulin acetylation (Fold increase)” value came out at 1.9 Fold increase in the assay on acetylated Tubulin (1 μM) and 4.4 Fold increase in the assay with acetylated Tubulin (10 μM). The “P21 induction (Fold increase)” value in the assay with p21 (1 μM) was 1.6 Fold increase; in the assay with p21 (10 μM), 2.4 Fold increase. Moreover, the “maximum Tumor Volume Inhibition (TVI)” value in the assay on HCT116 (colon) xenograft is given as 42%.
